Laboratory results published in US5101059A, “Amino acid protecting groups” (Research Corporation Technologies, Inc., priority 1989, dated 1992).

Assays:
Format in all cases: physicochemical
[1] = Base deblocking of R-Fmoc-aniline by various amines; conditions: room temperature
Description: 2. General Procedure for Studying the Base Deblocking of the Urethanes R-Fmoc-aniline (R=TMS, DMPS, DPMS, DT-TMS, TIPS): A solution of urethane (0.05 mmol) in a sample of redistilled base (5 mmol, 100 eq.) was allowed to stand at room temperature. The reaction was monitored periodically by TLC with an eluant consisting of Skelly B--CH2 Cl2 (1:1). No reaction occurred according to the TLC test for urethanes having R=TIPS in the case of any of the bases tested after 24 hours.

[2] = Deblocking of R-Fmoc-aniline by fluoride ion; conditions: tetra-n-butylammonium chloride 3.0 eq., KF dihydrate 4.1 eq., acetonitrile, room temperature
Description: 3. General Procedure for Studying the Deblocking of Urethanes R-Fmoc-aniline (R=TMS, DMPS, DPMS, TIPS, DT-TMS) by Reaction with Fluoride Ion: To a solution of urethane (0.0513 mmol) in 0.7 mL of acetonitrile was added 45 mg (0.154 mmol, 3.0 eq.) of tetra-n-butyl-ammonium chloride and 20 mg (0.213 mmol, 4.1 eq.) of potassium fluoride dihydrate. The mixture was stirred at room temperature, the reaction being monitored by TLC with an eluant consisting of Skelly B--CH2 Cl2 (1:1).

[3] = Deblocking of R-Fmoc-aniline by trifluoroacetic acid; conditions: room temperature
Description: 1. General Procedure for Studying the stability of R-Fmoc-analine (R=TMS, DMPS, DPMS, DT-TMS, TIPS) in Trifluoroacetic Acid: To a solution of urethane (0.026 mmol) in […].) of trifluoroacetic acid. The mixture was stirred at room temperature and the course of the reaction was monitored by TLC with an eluant consisting of Skelly B--dichloromethane (1:1) to note the time needed for complete deblocking of the urethanes.

[4] = Stability of substituted Fmoc-aniline to catalytic hydrogenation; conditions: palladium on charcoal, hydrogen 1 atm, 20 hours
Description: 1. Deblocking of 2,7-Bistrimethyl-silyl)-9-fluorenylmethyl Carbanilate: To a solution of 0.2 g BTS-Fmoc-aniline in 15 mL of 100% ethanol and 15 mL of EtOAc was added 20 mg of 10% palladium on charcoal at 0° C. The heterogeneous mixture was stirred under a hydrogen atmosphere (1 atm) for 20 hours. The catalyst was filtered and rinsed with EtOAc (2×5 mL). The combined filtrate was washed with sat'd NH4 Cl (2×20 mL), water (20 mL), and dried over anhydrous MgSO4. After evaporating the solvent in vacuo, the residue (0.14 g) was recrystallized from 95% ethanol to afford 0.11 g (78.0%) of 2,7-bis(trimethylsilyl)-9-methylfluorene as white needles, m.p. 106.5°-108° C., identified by mixture melting point, IR, and NMR spectral comparison with an authentic sample obtained as described above.
2. Stability of 9-Trimethylsilyl-9-fluorenylmethyl Carbanilate Towards Catalytic Hydrogenation: To a mixture of 0.15 g of TMS-Fmoc-analine and 0.15 g of BTS-Fmoc-analine in 20 mL of ethyl acetate and 30 mL of 100% ethanol was added 30 mg of […] palladium on charcoal. The mixture was magnetically stirred at room temperature under a hydrogen atmosphere (1 atm) for 20 hours. The catalyst was removed by filtration and rinsed with EtOAc (2×5 mL). […] Recrystallization of the former from 95% ethanol gave 78.3 mg (74.1%) of the pure silane, m.p. 107°-108.5° C. […]

[5] = Base deblocking and stability of 9-xanthenylmethyl and 9,10-dihydro-9-anthracenylmethyl derivatives; conditions: room temperature
Description: 1. Deblocking of Xmoc-PCA in 1,5,9-Triazabicyclo[4,4,0]dec-5-ene Solution: To a solution of 7.90 mg (0.0216 mmol) of Xmoc-PCA in 0.6 mL of pyridine was added 0.15 g (1.078 mmol 50 eq.) of 1,5,9-triazabicyclo[4,4,0]dec-5-ene (TBD). The mixture was stirred at room temperature and monitored by TLC with an eluant consisting of Skelly B--EtOAc (3:1). Complete deblocking had occurred after 25 minutes.
2. Base Deblocking of 9-Xanthenylmethyl Phenylacetate: a. In Piperdine Solution: To a solution of 13.39 mg of 9-XM-phenylacetate in 1.6 mL of DMF was added 0.4 mL (100 eq.) of piperidine. The mixture was stirred at room temperature. […] In DBU Solution: To a solution of 6.36 mg of 9-XM-phenylacetate in 0.9 mL of DMF was added 0.3 mL of 1,8-diazabicyclo[5,4,0]-undec-7-ene (DBU) (100 eq.). The mixture was stirred at room temperature. […] In TBD Solution: To a solution of 7.91 mg of 9-XM-phenylacetate in 0.3 mL of pyridine was added 100 mg (30 eq.) of 1,5,9-triazabicyclo[4,4,0]dec-5-ene. The mixture was stirred at room temperature.
1. General Procedure for Studying the Stabilities of DHAmoc-PCA, Xmoc-PCA, and DC-Xmoc-PCA in Piperidine Solution To a solution of urethane (0.0294 mmol) in 1.2 mL of DMF was added 0.3 mL (2.94 mmol, 100 eq.) of piperidine. The mixture was stirred at room temperature and monitored by TLC with an eluant consisting of Skelly B--EtOAc (3:1). Evidence for initiation of the deblocking required 2 minutes for DC-Xmoc-PCA, 3.5 hours for Xmoc-PCA, and 7 hours for DHAmoc-PCA.
2. General Procedure for Studying the Deblocking of Xmoc-PCA and DHAmoc-PCA in DBU Solution: To a solution of urethane (0.0324 mmol) in 0.5 mL of DMF was added 0.5 mL (3.24 mmol, 100 eq.) of 1,8-diazabicyclo[5,4,0]undec-7-ene. The mixture was stirred at room temperature and monitored by TLC with the eluant consisting of Skelly B--EtOAc (3:1). The time needed to complete the deblocking was 3.5 hours for Xmoc-PCA, and 6 hours for DHAmoc-PCA.

[6] = Stability of xanthenylmethyl and dihydroanthracenylmethyl derivatives in trifluoroacetic acid; conditions: TFA 40 eq., deuterated chloroform, room temperature, 3 days
Description: 3. Stability of Xanthenylmethyl p-Chlorocarbanilate in Trifluoroacetic Acid: To a solution of 35.61 mg of Xmoc-PCA in 0.2 mL of deuterated chloroform was added 0.3 mL (40 eq.) of trifluoroacetic acid. The mixture was transferred to an NMR tube and allowed to stand at room temperature. The reaction was monitored by NMR spectroscopy (Varian A-60A, 60 MHz) and TLC with an eluant consisting of Skelly B--ethyl acetate (4:1). No change was noted after 3 days.
4. Stability of 9-Xanthenylmethyl Phenylacetate in Trifluoroacetic Acid: To a solution of 21.4 mg of 9-XM phenylacetate in 0.2 mL of deuterated chloroform was added 0.2 mL (40 eq.) of trifluoroacetic acid. The mixture was transferred to an NMR tube and let stand at room temperature. The reaction was monitored by NMR (Varian A-60A, 60 MHz) spectroscopy and TLC analysis with an eluant consisting of Skelly B--ether (2:1). No change was noted after 3 days.
1. Stability of 9,10-Dihydro-9-anthracenylmethyl p-Chlorocarbanilate in Trifluoroacetic Acid: To a solution of 23.61 mg of DHAmoc-PCA in 0.2 mL of deuterated chloroform was added 0.2 mL (40 eq.) of trifluoroacetic acid. The mixture was transferred to an NMR tube and allowed to stand at room temperature. The reaction was monitored by NMR spectroscopy (Varian A-60A, 60 MHz) and TLC with an eluant consisting of Skelly B--EtOAc (3:1). No change was noted after 4 days.

[7] = Solubility of TMS-Fmoc and dichloro-Xmoc derivatives versus Fmoc analogs; conditions: in CH2Cl2
Description: This latter property is particularly important when peptide synthesis is carried out in solution.

[8] = Base deblocking of substituted urethanes (U-PCA) by various amines; conditions: dichloromethane, room temperature
Description: 1. General Procedure for Studying the Base Deblocking of the Urethanes Fmoc-PCA, BTS-Fmoc-PCA, DT-Fmoc-PCA, and TMS-Fmoc-PCA: A mixture of urethane (0.05 mmol) in a solution prepared from an equal volume of base (2.5 mmol, 50 eq.) and dichloromethane was stirred at room temperature. The course of the reaction was monitored by TLC with an eluant consisting of Skelly B--ether (3:1).

[9] = Stability of substituted Fmoc-PCA in acetic acid; conditions: glacial acetic acid 10 eq., CH2Cl2, room temperature, 48 hours
Description: 2. […] The mixture was stirred at room temperature for 48 hours. […] The mixture was washed with half sat'd NaHCO3 (2×10 mL) and water (10 mL). […] 161°-163° C., the IR and ^1 H NMR spectra of which matched that of an authentic sample.
3. Stability of 9-Trimethylsilyl-9-[…] p-Chlorocarbanilate in Acetic Acid: To a solution of 0.37 g of TMS-Fmoc-PCA in 10 mL of CH2 Cl2 was added 0.5 mL (10 eq.) of glacial acetic acid. The mixture was stirred at room temperature. […] The mixture was washed with half sat'd NaHCO3 (2×10 mL) and H2 O (10 mL). […] 124°-126° C., the ^1 H NMR and IR spectra of which matched that of an authentic sample.

[10] = Stability of 9-xanthenylmethyl carbanilate towards catalytic hydrogenolysis; conditions: 5% Pd/C and palladium acetate, 40 psi hydrogen, 24 hours
Description: 5. Stability of 9-Xanthenylmethyl Carbanilate Towards Catalytic Hydrogenolysis: To a solution of 300 mg of Xmoc-aniline in 30 mL of EtOAc and 10 mL of 100% EtOH was added 30 mg of 5% palladium on charcoal and 30 mg of palladium acetate. The mixture was shaken under hydrogen at a pressure of 40 psi in a Parr apparatus for 24 hours. […] 178°-181° C., the ^1 H NMR and IR spectra of which matched that of an authentic sample.

[11] = Base deblocking of 9-xanthenylmethoxycarbonyl-L-phenylalanine; conditions: room temperature
Description: A. Base Deblocking of 9-Xanthenylmethoxycarbonyl-L-phenylalanine: 1. In DBU Solution: To a solution of 13.08 mg of Xmoc-Phe-Oh in 0.5 mL of DMF was added 0.5 mL of 1,8-diazabicyclo[5,4,0]-undec-7-ene (DBU, 100 eq.). The mixture was stirred at room temperature. The reaction was monitored by TLC with an eluant consisting of CHCl3 --CH3 OH--CH3 CO2 H (9:1:0.1). Deblocking was complete after 36 hours. 2. In TBD Solution: To a solution of 7.25 mg of Xmoc-Phe-OH in 0.1 mL of pyridine and 0.1 mL of DMF was added 50 mg (20 eq.) of 1,5,9-triazabicyclo[4,4,0]dec-5-ene (TBD). The mixture was stirred at room temperature and monitored by TLC with an eluant consisting of CHCl3 --CH3 OH--CH3 CO2 H (9:1:0.1). Deblocking was complete after 4.5 hours.

Question: Which “Time for Complete Deblocking” value ([1]; morpholine 100 eq.) does the source give for C[Si](C)(C)C1(COC(=O)Nc2ccccc2)c2ccccc2-c2ccccc21 [TMS-Fmoc-aniline, 9-Trimethylsilyl-9-fluorenylmethyl Carbanilate] here?
Answer: The value was 180 min.

Question: What about the “Time for Complete Scavenging of Dibenzofulvene” value ([1]; morpholine 100 eq.) of the same compound?
Answer: Its value is 240 min.

Question: And the “Time for Complete Deblocking” value ([1]; piperidine 100 eq.)?
Answer: Its value is 100 min.

Question: And the “Time for Complete Scavenging of Dibenzofulvene” value ([1]; piperidine 100 eq.)?
Answer: Its value is 300 min.

Question: What about the “Time for Complete Deblocking” value ([1]; t-butylamine 100 eq.) of the same compound?
Answer: The value was 720 min.

Question: And the “Time for Complete Deblocking by Fluoride Ion” value [2]?
Answer: Its value is 5 min.

Question: What about the “Time for Complete Deblocking by Trifluoroacetic Acid” value [3] of the same compound?
Answer: The value was 5 h.

Question: And the recovered urethane ([4]; room temperature)?
Answer: Its recovered urethane is 93.3%.

Question: What does the source list for O=C(Cc1ccccc1)OCC1c2ccccc2Oc2ccccc21 [9-XM-phenylacetate, 9-Xanthenylmethyl Phenylacetate]?
Answer: Time for Complete Deblocking ([5]; DBU 100 eq., DMF): ≤ 90 min; Time for Complete Deblocking ([5]; TBD 30 eq., pyridine): ≤ 27 min; stability in piperidine solution (TLC) ([5]; piperidine 100 eq., DMF, 2 days): no change; stability in trifluoroacetic acid (NMR, TLC) [6]: No change

Question: For C[Si](C)(C)C1(COC(=O)Nc2ccc(Cl)cc2)c2ccccc2-c2ccccc21 [TMS-Fmoc-PCA, 9-Trimethylsilyl-9-fluorenylmethyl p-Chlorocarbanilate], which “solubility relative to that of the Fmoc analog” value [7] is on record?
Answer: Its value is 16 times.

Question: And the “soluble to the extent of (solubility)” value [7]?
Answer: The value was 53 g/100 mL.

Question: What about the “Time for Complete Deblocking” value ([8]; ethanolamine 50 eq.) of the same compound?
Answer: Its value is 150 min.

Question: And the “Time for Complete Scavenging of Dibenzofulvene Analogs” value ([8]; morpholine 50 eq.)?
Answer: The value was 16.5 hr.

Question: What about the “Time for Complete Deblocking” value ([8]; morpholine 50 eq., significant aminodibenzofulvene type adduct formed) of the same compound?
Answer: Its value is 780 min.

Question: And the “Time for Complete Scavenging of Dibenzofulvene Analogs” value ([8]; piperidine 50 eq.)?
Answer: Its value is 195 min.

Question: And the “Time for Complete Deblocking” value ([8]; piperidine 50 eq., significant aminodibenzofulvene type adduct formed)?
Answer: The value was 129 min.

Question: What about the “Time for Complete Deblocking” value ([8]; t-butylamine 50 eq.) of the same compound?
Answer: The value was greater than 2900 min.

Question: And the recovered urethane [9]?
Answer: The recovered urethane was 97.5%.

Question: What about the “stability in acetic acid (TLC)” value [9] of the same compound?
Answer: The value was “no change”.

Question: Which recovered urethane [10] does the source give for O=C(Nc1ccccc1)OCC1c2ccccc2Oc2ccccc21 [Xmoc-aniline, 9-Xanthenylmethyl Carbanilate] here?
Answer: Its recovered urethane is 94.3%.

Question: What about the “stability towards catalytic hydrogenolysis (TLC)” value [10] of the same compound?
Answer: The value was “remained intact”.

Question: With O=C(N[C@@H](Cc1ccccc1)C(=O)O)OCC1c2ccccc2Oc2ccccc21 [Xmoc-Phe-OH, 9-Xanthenylmethoxycarbonyl-L-phenylalanine] as the compound, how does the “Time for Complete Deblocking” value ([11]; DBU 100 eq., DMF) read?
Answer: The value was 36 h.

Question: What about the “Time for Complete Deblocking” value ([11]; TBD 20 eq., pyridine and DMF) of the same compound?
Answer: The value was 4.5 h.

Question: For C[Si](C)(C)c1ccc2c(c1)C(COC(=O)Nc1ccccc1)c1cc([Si](C)(C)C)ccc1-2 [BTS-Fmoc-aniline, 2,7-Bis(trimethylsilyl)-9-fluorenylmethyl Carbanilate], which “product of catalytic hydrogenation (deblocking)” value [4] is on record?
Answer: Its value is 2,7-bis(trimethylsilyl)-9-methylfluorene.
